pKi: −log10 of the molar value. Like-named read-outs stand apart in the source and are kept apart here.
Legend:
DDR1 = DDR1 (Homo sapiens (Human), UniProt Q08345); assay: DDR1 binding assay (LanthaScreen Europium Kinase Binding assay)
Method: (§1) DDR1 and DDR2 binding assays were performed using Life Technologies LanthaScreen™ Europium Kinase Binding assay. The compounds were incubated with 5 nM DDR1 (Carna Biosciences) or 5 nM DDR2 (Life Technologies) for 1 h at rt in white 384-well OptiPlate (PerkinElmer), containing 20 nM or 10 nM Kinase Tracer 178 respectively and 2 nM Europium labelled anti-GST antibody (Life Technologies) in assay buffer (50 mM HEPES pH 7.5, 10 mM MgCI2, 1 mM EGTA and 0.01% BRIJ35). The ratio of fluorescence emission 665 nm/615 nm after excitation at 340 nm was obtained using the Tecan Spark 20M plate reader. IC50 values were determined in GraphPad Prism 7.0 software, using 4 parameter model: log(inhibitor) vs. response. IC50 values were converted in Ki using the Cheng-Prusoff equation (Ki=IC50/(1+[Tracer]/Kd).

DDR2 = DDR2 (Homo sapiens (Human), UniProt Q16832); assay: DDR2 binding assay (LanthaScreen Europium Kinase Binding assay)
Chain of DDR2 (Q16832 22-855): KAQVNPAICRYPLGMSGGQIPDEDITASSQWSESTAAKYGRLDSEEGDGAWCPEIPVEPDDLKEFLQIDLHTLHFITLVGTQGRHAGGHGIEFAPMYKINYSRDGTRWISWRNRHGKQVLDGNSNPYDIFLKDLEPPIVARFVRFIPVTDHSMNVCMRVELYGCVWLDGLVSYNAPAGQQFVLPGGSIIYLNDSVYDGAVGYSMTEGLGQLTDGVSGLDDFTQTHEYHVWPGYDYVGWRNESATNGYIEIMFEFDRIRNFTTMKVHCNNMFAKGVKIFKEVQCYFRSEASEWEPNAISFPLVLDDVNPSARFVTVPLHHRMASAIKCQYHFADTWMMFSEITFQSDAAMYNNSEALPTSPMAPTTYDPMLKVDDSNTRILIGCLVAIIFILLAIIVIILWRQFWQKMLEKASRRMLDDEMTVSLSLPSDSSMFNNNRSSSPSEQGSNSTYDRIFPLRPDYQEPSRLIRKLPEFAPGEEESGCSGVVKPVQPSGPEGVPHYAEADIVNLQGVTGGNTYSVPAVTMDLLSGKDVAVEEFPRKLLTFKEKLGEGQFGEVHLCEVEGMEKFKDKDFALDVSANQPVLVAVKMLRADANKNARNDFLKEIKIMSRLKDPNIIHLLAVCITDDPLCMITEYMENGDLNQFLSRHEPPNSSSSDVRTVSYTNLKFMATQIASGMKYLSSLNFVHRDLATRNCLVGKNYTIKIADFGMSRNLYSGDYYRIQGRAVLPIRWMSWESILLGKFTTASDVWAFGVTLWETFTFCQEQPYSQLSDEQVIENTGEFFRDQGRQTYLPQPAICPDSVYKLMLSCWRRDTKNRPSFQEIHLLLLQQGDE
Method: as §1

[1] = 5 nM DDR1, 20 nM Kinase Tracer 178, 1 h at rt, Ki from IC50 by Cheng-Prusoff, read-out: Ki DDR1
[2] = 5 nM DDR2, 10 nM Kinase Tracer 178, 1 h at rt, Ki from IC50 by Cheng-Prusoff, read-out: Ki DDR2

Chain of DDR1 (Q08345 19-913): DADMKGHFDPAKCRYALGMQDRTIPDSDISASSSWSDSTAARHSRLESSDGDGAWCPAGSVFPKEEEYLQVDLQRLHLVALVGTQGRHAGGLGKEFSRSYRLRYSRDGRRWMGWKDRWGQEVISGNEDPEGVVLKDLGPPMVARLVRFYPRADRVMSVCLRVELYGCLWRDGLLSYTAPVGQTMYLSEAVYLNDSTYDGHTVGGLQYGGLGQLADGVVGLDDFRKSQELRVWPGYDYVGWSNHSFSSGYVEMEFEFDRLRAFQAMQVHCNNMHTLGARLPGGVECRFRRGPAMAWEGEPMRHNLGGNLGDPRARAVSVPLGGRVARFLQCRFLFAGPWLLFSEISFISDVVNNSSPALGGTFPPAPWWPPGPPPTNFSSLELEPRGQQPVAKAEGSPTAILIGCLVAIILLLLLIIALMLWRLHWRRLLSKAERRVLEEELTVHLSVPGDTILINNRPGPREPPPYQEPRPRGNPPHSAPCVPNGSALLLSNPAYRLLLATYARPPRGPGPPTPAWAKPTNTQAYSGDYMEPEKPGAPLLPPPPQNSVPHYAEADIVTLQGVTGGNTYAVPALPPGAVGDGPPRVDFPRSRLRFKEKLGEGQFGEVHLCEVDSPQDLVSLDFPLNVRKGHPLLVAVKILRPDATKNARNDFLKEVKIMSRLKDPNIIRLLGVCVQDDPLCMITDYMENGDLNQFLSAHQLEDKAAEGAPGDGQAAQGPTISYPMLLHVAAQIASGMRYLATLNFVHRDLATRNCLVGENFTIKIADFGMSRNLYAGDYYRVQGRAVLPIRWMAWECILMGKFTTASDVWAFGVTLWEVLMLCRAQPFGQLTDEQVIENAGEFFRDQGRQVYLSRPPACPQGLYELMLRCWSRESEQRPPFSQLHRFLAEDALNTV

pKi (DDR1; [1])	pKi (DDR2; [2])	pKi (DDR1; same binding assay, numeric values, read-out: DDR1 Ki)	pKi (DDR2; same binding assay, numeric values, read-out: DDR2 Ki)	Structure (SMILES)
> 8.30	7.60 to 8.30			Cc1ccc(C(=O)Nc2cncc(C(F)(F)F)c2)cc1C(C)C1CN(c2cnn3ccncc23)C1 (stereo not shown) [Example 172, 4-methyl-3-(1-(1-(pyrazolo[1,5-a]pyrazin-3-yl)azetidin-3-yl)ethyl)-N-(5-(trifluoromethyl)pyridin-3-yl)benzamide]
> 8.30	> 8.30			Cc1ccc(C(=O)Nc2cncc(C(F)(F)F)c2)cc1OC1CN(c2cnc3ccccn23)C1 [Example 137, 3-((1-(imidazo[1,2-a]pyridin-3-yl)azetidin-3-yl)oxy)-4-methyl-N-(5-(trifluoromethyl)pyridin-3-yl)benzamide]
> 8.30	7.60 to 8.30			Cc1ccc(C(=O)Nc2cncc(C(F)(F)F)c2)cc1OC1CN(c2cnn3ccc(N4CCN(C)CC4)nc23)C1 [Example 166, 4-methyl-3-((1-(5-(4-methylpiperazin-1-yl)pyrazolo[1,5-a]pyrimidin-3-yl)azetidin-3-yl)oxy)-N-(5-(trifluoromethyl)pyridin-3-yl)benzamide]
> 8.30	7.60 to 8.30			CC(=O)Nc1ccn2ncc(N3CC(Oc4cc(C(=O)Nc5cncc(C(F)(F)F)c5)ccc4C)C3)c2n1 [Example 138, 3-((1-(5-acetamidopyrazolo[1,5-a]pyrimidin-3-yl)azetidin-3-yl)oxy)-4-methyl-N-(5-(trifluoromethyl)pyridin-3-yl)benzamide]
> 8.30	> 8.30			Cc1ccc(C(=O)Nc2cncc(C(F)(F)F)c2)cc1OC1CN(c2cncc(-c3cnn(C)c3)c2)C1 [Example 143, 4-methyl-3-((1-(5-(1-methyl-1H-pyrazol-4-yl)pyridin-3-yl)azetidin-3-yl)oxy)-N-(5-(trifluoromethyl)pyridin-3-yl)benzamide]
> 8.30	7.60 to 8.30			Cc1ccc(C(=O)Nc2cncc(C(F)(F)F)c2)cc1OC1CN(c2cnn3cccnc23)C1 [Example 142, 4-methyl-3-((1-(pyrazolo[1,5-a]pyrimidin-3-yl)azetidin-3-yl)oxy)-N-(5-(trifluoromethyl)pyridin-3-yl)benzamide]
> 8.30	7.60 to 8.30			Cc1ccc(C(=O)Nc2cncc(C(F)(F)F)c2)cc1C1CN(c2cnn3ccncc23)C1 [Example 184, 4-methyl-3-(1-(pyrazolo[1,5-a]pyrazin-3-yl)azetidin-3-yl)-N-(5-(trifluoromethyl)pyridin-3-yl)benzamide]
> 8.30	> 8.30			Cc1ccc(C(=O)Nc2cncc(OC(F)(F)F)c2)cc1OC1CN(c2cnn3ccncc23)C1 [Example 157, 4-methyl-3-((1-(pyrazolo[1,5-a]pyrazin-3-yl)azetidin-3-yl)oxy)-N-(5-(trifluoromethoxy)pyridin-3-yl)benzamide]
> 8.30	7.60 to 8.30			Cc1ccc(C(=O)Nc2cncc(C(F)(F)F)c2)cc1OC1CN(c2cncnc2)C1 [Example 135, 4-methyl-3-((1-(pyrimidin-5-yl)azetidin-3-yl)oxy)-N-(5-(trifluoromethyl)pyridin-3-yl)benzamide]
> 8.30	> 8.30			Cc1ccc(C(=O)Nc2cncc(C(F)(F)F)c2)cc1OC1CN(c2cnccc2C#N)C1 [Example 174, 3-((1-(4-cyanopyridin-3-yl)azetidin-3-yl)oxy)-4-methyl-N-(5-(trifluoromethyl)pyridin-3-yl)benzamide]
> 8.30	> 8.30			Cc1ccc(C(=O)Nc2cccc(CC(F)(F)F)c2)cc1OC1CN(c2cnn3ccncc23)C1 [Example 164, 4-methyl-3-((1-(pyrazolo[1,5-a]pyrazin-3-yl)azetidin-3-yl)oxy)-N-(3-(2,2,2-trifluoroethyl)phenyl)benzamide]
> 8.30	7.60 to 8.30			Cc1ccc(C(=O)Nc2cncc(C(F)(F)F)c2)cc1OC1CN(c2cnn3ccc(N4CCOCC4)nc23)C1 [Example 170, 4-methyl-3-((1-(5-morpholinopyrazolo[1,5-a]pyrimidin-3-yl)azetidin-3-yl)oxy)-N-(5-(trifluoromethyl)pyridin-3-yl)benzamide]
7.60 to 8.30	7.60 to 8.30			Cc1ccc(C(=O)Nc2cc(C(C)(C)C)no2)cc1NC1CN(c2cnn3ccncc23)C1 [Example 149, N-(3-(tert-butyl)isoxazol-5-yl)-4-methyl-3-((1-(pyrazolo[1,5-a]pyrazin-3-yl)azetidin-3-yl)amino)benzamide]

The next lines start with the compound.

Structure (SMILES)	pKi (DDR1; [1])	pKi (DDR2; [2])	pKi (DDR1; same binding assay, numeric values, read-out: DDR1 Ki)	pKi (DDR2; same binding assay, numeric values, read-out: DDR2 Ki)
Cc1ccc(C(=O)Nc2cncc(C(F)(F)F)c2)cc1OC1CN(c2cnc3cnccn23)C1 [Example 146, 3-((1-(imidazo[1,2-a]pyrazin-3-yl)azetidin-3-yl)oxy)-4-methyl-N-(5-(trifluoromethyl)pyridin-3-yl)benzamide]	> 8.30	> 8.30		
Cc1ccc(C(=O)Nc2cncc(C(F)(F)F)c2)cc1OC1CN(c2ncnc3[nH]cc(C#N)c23)C1 [Example 173, 3-((1-(5-cyano-7H-pyrrolo[2,3-d]pyrimidin-4-yl)azetidin-3-yl)oxy)-4-methyl-N-(5-(trifluoromethyl)pyridin-3-yl)benzamide]	> 8.30	7.60 to 8.30		
Cc1ccc(C(=O)Nc2cc(C(C)(C)C)n(C)n2)cc1OC1CN(c2cnn3ccncc23)C1 [Example 154, N-(5-(tert-butyl)-1-methyl-1H-pyrazol-3-yl)-4-methyl-3-((1-(pyrazolo[1,5-a]pyrazin-3-yl)azetidin-3-yl)oxy)benzamide]	> 8.30	> 8.30		
Cc1ccc(C(=O)Nc2cncc(C(F)(F)F)c2)cc1OC1CN(c2cnn3ccncc23)C1 [Example 136, 4-methyl-3-((1-(pyrazolo[1,5-a]pyrazin-3-yl)azetidin-3-yl)oxy)-N-(5-(trifluoromethyl)pyridin-3-yl)benzamide]	> 8.30	> 8.30		
Cc1ccc(C(=O)Nc2cncc(C(F)(F)F)c2)cc1NC1CN(C(=O)c2cnn3ccncc23)C1 [Compound C1, 4-methyl-3-((1-(pyrazolo[1,5-a]pyrazine-3-carbonyl)azetidin-3-yl)amino)-N-(5-(trifluoromethyl)pyridin-3-yl)benzamide, reference compound]			6.94	6.51
O=C(Nc1cncc(C(F)(F)F)c1)c1ccc(OC(F)F)c(NC2CN(c3cnn4ccncc34)C2)c1 [Example 181, 4-(difluoromethoxy)-3-((1-(pyrazolo[1,5-a]pyrazin-3-yl)azetidin-3-yl)amino)-N-(5-(trifluoromethyl)pyridin-3-yl)benzamide]	> 8.30	7.60 to 8.30		
Cc1ccc(C(=O)Nc2cncc(C(F)(F)F)c2)cc1OC1CN(c2cncc3c2cnn3C)C1 [Example 169, 4-methyl-3-((1-(1-methyl-1H-pyrazolo[3,4-c]pyridin-4-yl)azetidin-3-yl)oxy)-N-(5-(trifluoromethyl)pyridin-3-yl)benzamide]	> 8.30	7.60 to 8.30		
Cc1ccc(C(=O)Nc2cncc(C(F)(F)F)c2)cc1NC1CN(c2cnn3cccnc23)C1 [Example 148, 4-methyl-3-((1-(pyrazolo[1,5-a]pyrimidin-3-yl)azetidin-3-yl)amino)-N-(5-(trifluoromethyl)pyridin-3-yl)benzamide]	7.60 to 8.30	7.60 to 8.30		
Cc1ccc(C(=O)Nc2cncc(C(F)(F)F)c2)cc1NC1CN(c2cnc3cnccn23)C1 [Example 147, 3-((1-(imidazo[1,2-a]pyrazin-3-yl)azetidin-3-yl)amino)-4-methyl-N-(5-(trifluoromethyl)pyridin-3-yl)benzamide]	> 8.30	> 8.30		
CC(=O)Nc1cncc(N2CC(Oc3cc(C(=O)Nc4cncc(C(F)(F)F)c4)ccc3C)C2)c1 [Example 145, 3-((1-(5-acetamidopyridin-3-yl)azetidin-3-yl)oxy)-4-methyl-N-(5-(trifluoromethyl)pyridin-3-yl)benzamide]	> 8.30	> 8.30		
